In ChEMBL document CHEMBL5500429, “ERAP Inhibitors in Autoimmunity and Immuno-Oncology: Medicinal Chemistry Insights” (J Med Chem, 2024):
Values belong to the molecule of their own block, whether it stands above or below them.

Legend:
[1] = molecular target: T1, Endoplasmic reticulum aminopeptidase 2 (Homo sapiens, UniProt Q6P179); assay: Inhibition of ERAP2 (unknown origin) using R-AMC as substrate
[2] = molecular target: T1, Endoplasmic reticulum aminopeptidase 2; assay: Inhibition of C-terminal Hexa-histidine-tagged human recombinant ERAP2 expressed in Sf9 cells using R-AMC as substrate incubated for 15 mins by Michaelis-Menten analysis
[3] = molecular target: Aminopeptidase N (Homo sapiens, UniProt P15144); assay: Inhibition of FLAG-tagged human recombinant Aminopeptidase N
Sequence of Aminopeptidase N (P15144 whole entry): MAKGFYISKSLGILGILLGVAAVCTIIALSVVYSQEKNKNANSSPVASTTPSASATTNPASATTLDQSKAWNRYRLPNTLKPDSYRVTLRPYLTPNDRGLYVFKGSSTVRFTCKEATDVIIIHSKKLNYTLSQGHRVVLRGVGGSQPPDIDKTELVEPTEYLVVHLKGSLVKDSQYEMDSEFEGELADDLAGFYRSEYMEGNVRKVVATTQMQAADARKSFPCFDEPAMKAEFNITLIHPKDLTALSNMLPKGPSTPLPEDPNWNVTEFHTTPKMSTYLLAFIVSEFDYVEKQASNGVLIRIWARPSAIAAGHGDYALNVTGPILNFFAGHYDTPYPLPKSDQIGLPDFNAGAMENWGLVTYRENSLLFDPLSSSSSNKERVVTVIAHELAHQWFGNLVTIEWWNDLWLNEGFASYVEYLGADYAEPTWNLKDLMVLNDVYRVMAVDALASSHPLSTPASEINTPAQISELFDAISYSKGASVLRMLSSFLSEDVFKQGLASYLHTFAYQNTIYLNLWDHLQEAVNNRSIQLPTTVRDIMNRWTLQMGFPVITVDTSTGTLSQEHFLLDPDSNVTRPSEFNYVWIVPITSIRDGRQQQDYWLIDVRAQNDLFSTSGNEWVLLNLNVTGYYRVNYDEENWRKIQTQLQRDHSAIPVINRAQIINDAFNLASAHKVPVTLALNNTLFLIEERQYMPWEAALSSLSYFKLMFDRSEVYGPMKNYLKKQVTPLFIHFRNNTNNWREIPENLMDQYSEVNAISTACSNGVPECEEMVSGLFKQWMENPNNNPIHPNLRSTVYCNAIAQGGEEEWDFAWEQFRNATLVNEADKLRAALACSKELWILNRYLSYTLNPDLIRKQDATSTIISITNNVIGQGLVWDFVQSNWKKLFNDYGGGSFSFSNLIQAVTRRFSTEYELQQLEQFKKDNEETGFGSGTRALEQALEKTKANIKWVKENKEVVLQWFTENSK

[4] = molecular target: T2, Endoplasmic reticulum aminopeptidase 1 (Homo sapiens, UniProt Q9NZ08); assay: Inhibition of C-terminal Hexa-histidine-tagged human recombinant ERAP1 expressed in Sf9 cells using L-AMC as substrate incubated for 15 mins by Michaelis-Menten analysis
T2 sequence (Q9NZ08 whole entry): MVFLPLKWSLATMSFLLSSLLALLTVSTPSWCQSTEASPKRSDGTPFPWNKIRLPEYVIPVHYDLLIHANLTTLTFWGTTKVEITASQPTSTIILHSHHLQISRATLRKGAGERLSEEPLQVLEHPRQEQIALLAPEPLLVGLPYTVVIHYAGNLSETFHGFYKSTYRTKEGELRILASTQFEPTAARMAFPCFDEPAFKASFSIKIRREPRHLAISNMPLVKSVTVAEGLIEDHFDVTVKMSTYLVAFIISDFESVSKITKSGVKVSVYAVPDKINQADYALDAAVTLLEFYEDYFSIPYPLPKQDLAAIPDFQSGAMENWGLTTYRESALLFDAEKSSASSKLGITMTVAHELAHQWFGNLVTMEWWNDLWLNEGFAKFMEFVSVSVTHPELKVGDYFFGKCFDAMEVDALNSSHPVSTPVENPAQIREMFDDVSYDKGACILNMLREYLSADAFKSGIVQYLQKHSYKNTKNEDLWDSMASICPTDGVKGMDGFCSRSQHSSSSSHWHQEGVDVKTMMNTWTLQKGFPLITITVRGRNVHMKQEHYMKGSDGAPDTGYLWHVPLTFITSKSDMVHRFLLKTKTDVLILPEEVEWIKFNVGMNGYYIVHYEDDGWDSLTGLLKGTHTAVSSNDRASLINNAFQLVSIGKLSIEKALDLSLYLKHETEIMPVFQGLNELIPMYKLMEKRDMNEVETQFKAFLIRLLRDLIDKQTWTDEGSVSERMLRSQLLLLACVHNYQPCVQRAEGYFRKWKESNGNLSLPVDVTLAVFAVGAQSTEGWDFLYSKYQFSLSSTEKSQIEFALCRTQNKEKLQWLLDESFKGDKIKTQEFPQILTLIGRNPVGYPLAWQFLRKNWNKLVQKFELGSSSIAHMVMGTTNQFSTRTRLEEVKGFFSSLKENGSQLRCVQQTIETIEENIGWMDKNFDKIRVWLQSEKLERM

[5] = molecular target: T2, Endoplasmic reticulum aminopeptidase 1; assay: Inhibition of ERAP1 (unknown origin) using L-AMC as substrate
[6] = Inhibition of C-terminal Hexa-histidine-tagged human recombinant IRAP expressed in Sf9 cells using R-AMC as substrate incubated for 15 mins by Michaelis-Menten analysis
[7] = molecular target: Cytosol aminopeptidase (Homo sapiens, UniProt P28838); assay: Inhibition of human recombinant Leucine aminopeptidase 3
Sequence of Cytosol aminopeptidase (P28838 whole entry): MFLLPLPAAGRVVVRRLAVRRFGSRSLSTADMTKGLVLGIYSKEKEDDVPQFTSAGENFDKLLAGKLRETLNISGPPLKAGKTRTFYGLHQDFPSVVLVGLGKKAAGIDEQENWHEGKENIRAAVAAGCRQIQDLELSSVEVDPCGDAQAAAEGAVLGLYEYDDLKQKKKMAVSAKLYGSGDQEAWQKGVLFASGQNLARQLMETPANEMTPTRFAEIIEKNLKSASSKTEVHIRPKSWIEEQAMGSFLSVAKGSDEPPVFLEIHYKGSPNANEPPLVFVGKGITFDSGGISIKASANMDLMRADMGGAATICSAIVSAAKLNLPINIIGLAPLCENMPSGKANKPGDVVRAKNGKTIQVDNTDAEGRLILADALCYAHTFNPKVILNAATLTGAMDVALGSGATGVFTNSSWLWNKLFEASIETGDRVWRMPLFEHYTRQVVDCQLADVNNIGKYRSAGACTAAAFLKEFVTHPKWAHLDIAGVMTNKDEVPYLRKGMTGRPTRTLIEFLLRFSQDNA

[8] = molecular target: T3, Leukotriene A-4 hydrolase (Homo sapiens, UniProt P09960); assay: Inhibition of full length human recombinant Leukotriene A-4 hydrolase expressed in baculovirus infected Insect cells; design: species or system Insect cell
T3 sequence (P09960 whole entry): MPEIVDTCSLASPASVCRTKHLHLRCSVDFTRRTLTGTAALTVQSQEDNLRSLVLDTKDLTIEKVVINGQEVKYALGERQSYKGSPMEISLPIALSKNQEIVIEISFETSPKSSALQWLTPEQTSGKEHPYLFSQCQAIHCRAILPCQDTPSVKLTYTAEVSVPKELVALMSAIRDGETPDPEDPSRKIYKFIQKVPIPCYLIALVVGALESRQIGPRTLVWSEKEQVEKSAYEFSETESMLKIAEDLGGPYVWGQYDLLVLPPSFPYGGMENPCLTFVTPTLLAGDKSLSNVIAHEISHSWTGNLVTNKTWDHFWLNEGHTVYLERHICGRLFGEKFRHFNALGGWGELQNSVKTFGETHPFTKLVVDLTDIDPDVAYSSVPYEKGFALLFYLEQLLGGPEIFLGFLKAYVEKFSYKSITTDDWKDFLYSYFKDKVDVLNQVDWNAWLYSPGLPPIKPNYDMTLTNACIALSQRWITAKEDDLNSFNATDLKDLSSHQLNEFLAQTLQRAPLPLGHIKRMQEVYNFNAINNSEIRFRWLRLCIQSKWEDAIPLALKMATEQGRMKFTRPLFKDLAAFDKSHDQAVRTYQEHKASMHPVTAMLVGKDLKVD

T1 sequence (Q6P179 whole entry): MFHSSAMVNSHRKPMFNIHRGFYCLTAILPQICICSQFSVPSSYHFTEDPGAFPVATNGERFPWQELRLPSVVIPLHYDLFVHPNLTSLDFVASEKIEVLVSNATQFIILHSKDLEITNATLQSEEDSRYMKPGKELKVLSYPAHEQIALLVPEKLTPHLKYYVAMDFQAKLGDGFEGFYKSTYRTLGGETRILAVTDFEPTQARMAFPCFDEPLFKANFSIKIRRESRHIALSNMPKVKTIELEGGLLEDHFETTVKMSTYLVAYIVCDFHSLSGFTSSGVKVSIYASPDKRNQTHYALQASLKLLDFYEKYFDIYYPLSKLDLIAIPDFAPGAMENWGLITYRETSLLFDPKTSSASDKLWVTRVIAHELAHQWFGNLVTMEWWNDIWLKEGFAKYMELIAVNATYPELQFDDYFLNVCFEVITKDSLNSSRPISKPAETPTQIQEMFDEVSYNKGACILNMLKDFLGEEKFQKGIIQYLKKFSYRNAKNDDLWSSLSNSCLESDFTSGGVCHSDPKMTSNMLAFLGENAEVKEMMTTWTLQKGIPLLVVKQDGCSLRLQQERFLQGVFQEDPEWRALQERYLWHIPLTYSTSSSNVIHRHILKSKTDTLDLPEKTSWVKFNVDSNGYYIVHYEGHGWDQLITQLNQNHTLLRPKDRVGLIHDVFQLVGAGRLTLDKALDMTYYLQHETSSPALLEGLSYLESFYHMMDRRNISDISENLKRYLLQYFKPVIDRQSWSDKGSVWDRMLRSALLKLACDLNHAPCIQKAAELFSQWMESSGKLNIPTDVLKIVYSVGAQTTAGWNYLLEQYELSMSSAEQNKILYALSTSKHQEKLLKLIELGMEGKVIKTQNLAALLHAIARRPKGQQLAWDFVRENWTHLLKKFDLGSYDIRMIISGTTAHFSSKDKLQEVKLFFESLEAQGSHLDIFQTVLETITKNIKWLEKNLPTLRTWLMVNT

IC50 [1]: 26.8 µM
SMILES: COc1ccc(C(=O)O)cc1S(=O)(=O)Nc1ccc(C(F)(F)F)cc1N1CCCCC1

IC50 [5]: > 100 µM
SMILES: COc1ccc(C[C@@H](C(=O)NO)n2cc(CNS(=O)(=O)c3ccc(-c4ccccc4)s3)nn2)cc1

IC50 [5]: > 100 µM
SMILES: O=C(NO)[C@H](Cc1ccc(Oc2ccccc2)cc1)n1cc(CNS(=O)(=O)c2ccc(-c3ccccn3)s2)nn1

IC50 [7]: 0.005 µM | IC50 [2]: 0.77 µM | IC50 [3]: 0.03 µM | IC50 [4]: 18 µM | IC50 [8]: 0.008 µM
SMILES: CC(C)C[C@@H](C(=O)N[C@H](C(=O)OC1CCCC1)c1ccccc1)[C@H](O)C(=O)NO [TOSEDOSTAT]

IC50 [4]: 11 µM | IC50 [6]: > 100 µM
SMILES: CC(C)C[C@H](NC(=O)[C@@H](O)[C@H](N)Cc1ccccc1)C(=O)O [UBENIMEX]

The remaining lines, values behind:

SMILES: CC(C)C[C@H](N)CS
IC50 [2]: 0.61 µM | IC50 [3]: 0.008 µM | IC50 [4]: 0.11 µM

SMILES: O=C(C[C@H](Cc1ccc(O)cc1)n1nncc1CNS(=O)(=O)c1ccc(-c2ccccn2)s1)NO
IC50 [5]: > 100 µM

SMILES: CC(C)C[C@@H](N)[C@H](O)C(=O)N[C@H](C(=O)N[C@H](C(=O)N[C@@H](CC(=O)O)C(=O)O)C(C)C)C(C)C [AMASTATIN]
IC50 [4]: 22 µM | IC50 [6]: 25 µM
